Where “and” joins values, the source holds several entries; their conditions need not be identical. Equal entries are not always repeated.
Tests used:
[1] = tested on: elimination of [^125I]hAβ(1-40) from rat brain; conditions: cited from earlier work
Protocol: The present study examined the [^125I]hAβ(1-40) elimination from the brain for 60 min, and considerable degradation of injected [^125I]hAβ(1-40) might occur during this period.

[2] = tested on: brain-to-blood [^125I]hAβ(1-40) efflux transport across the BBB; experiment: Brain Efflux Index (BEI) study: elimination of [^125I]hAβ(1-40) after intracerebral microinjection; assay type: in vivo; conditions: for decrease of percentage of [^125I]hAβ(1-40) remaining in ipsilateral cerebrum versus vehicle-treated control: n = 5; for effect on percentage of [^125I]hAβ(1-40) remaining versus vehicle-treated control: single i.p. 1 μg/mouse
Protocol: Control mice were injected i.p. with 100 μL of each vehicle solution. After an indicated time (24, 48, or 72 h), the in vivo brain elimination experiments were performed using the intracerebral microinjection technique. Briefly, mice were anesthetized with an intramuscular injection of xylazine (1.22 mg/kg) and ketamine (125 mg/kg), and placed in a stereotaxic frame (SRS-6; Narishige, Tokyo, Japan) that determines the coordinates of the mouse brain coinciding with the secondary somatosensory cortex 2 (S2) region. A small hole was made 3.8 mm lateral to the bregma, and a fine injection needle fitted to a 5.0 μl microsyringe (Hamilton, Reno, NE, USA) was advanced to a depth of 2.5 mm. The solution of [^125I]hAβ(1-40) was freshly prepared from lyophilized [^125I]hAβ(1-40) immediately before each experiment. Lyophilized [^125I]hAβ(1-40) was solubilized in H2O and then added to an equal volume of 2-fold concentration of extracellular fluid (ECF) buffer (244 mM NaCl, 50 mM NaHCO3, 6 mM KCl, 2.8 mM CaCl2, 2.4 mM MgSO4, 0.8 mM K2HPO4, 20 mM D-glucose, and 20 mM HEPES, pH 7.4). […] The applied solution (0.3 μl) containing [^125I]hAβ(1-40) and [^3H]dextran in an ECF buffer was administered into the S2 region over a period of 30 sec. After microinjection, the microsyringe was left in place for 4 min to minimize any backflow. At 5, 30 or 60 min after microinjection, ipsilateral (left) and contralateral (right) cerebrum and cerebellum were excised and dissolved in 2.0 ml 2 M NaOH at 60°C for 1 h. The ^125I and ^3H radioactivities of the samples were measured in a γ-counter (ART300, Aloka, Tokyo, Japan) for 3 min and a liquid scintillation counter (TRI-CARB2050CA, Packard Instruments, Meriden, CT, USA) for 5 min, respectively. The BEI was defined by Equation (1), and the percentage of substrate remaining in the ipsilateral cerebrum (100-BEI) was determined using Equation (2): [drawing 1] [drawing 2]
The apparent elimination rate constant (kel) was determined from the slope given by fitting a semilogarithmic plot of (100-BEI) versus time, using the nonlinear least-squares regression analysis program MULTI [27].

TM-BBB4 cells [3] = experiment: In vitro internalization (acid-resistant binding) of [^125I]hAβ(1-40) in TM-BBB4 cells; assay type: cell-based, mouse
Protocol: The TM-BBB4 cell line, established from transgenic mice harboring the temperature-sensitive SV40 large T-antigen gene, was used in this study. TM-BBB4 cells were cultured at 33°C in Dulbecco's modified Eagle's medium (DMEM; Nissui Pharmaceutical Co., Tokyo, Japan), supplemented with 20 mM NaHCO3, 2 mM L-glutamine, 15 ng/ml endothelial cell growth factor, 100 U/ml benzyl penicillin, […] streptomycin sulfate, and 10% fetal bovine serum (Moregate, Bulimba, Australia) in an atmosphere of 95% air and 5% CO2.
TM-BBB4 cells were seeded on 24-well plates (Becton Dickinson, Bedford, MA, USA) at a density of 1.0 × 10^5 cells/2 cm^2/well and cultured for 24 h. The cells were treated with the indicated concentrations of forskolin and U0126 or vehicle for 24 h, and then internalization of [^125I]hAβ(1-40) into TM-BBB4 cells was examined as previously described. Briefly, the extent of TM-BBB4 cell-[^125I]hAβ(1-40) (0.15 μCi/200 μl in ECF buffer) binding was measured for 3 min at 37°C. After the indicated times, binding was terminated by removing the solution, and the cells were washed three times with 1 ml ice-cold ECF buffer. The cells were then incubated with 1 ml ice-cold acetate-barbital buffer (28 mM CH3COONa, 120 mM NaCl, 20 mM barbital sodium (pH 3.0) and 360 mOsm/kg) for 20 min at 4°C to remove [^125I]hAβ(1-40) bound to the cell surface. After incubation, the buffer was then recovered (acid-soluble fraction) and the cells were subsequently washed three times with ice-cold acetate-barbital buffer.
(§1) Acid-resistant binding represents the amount of internalized [^125I]hAβ(1-40) in the TM-BBB4 cells. The cells were solubilized with 200 μl of 5 M NaOH overnight and neutralized with 200 μl of 5 M HCl. The ^125I radioactivity was measured using a γ-counter (ART310, Aloka, Tokyo, Japan). The protein content of the cultured cells was measured using a DC protein assay kit (Bio-Rad, Hercules, CA, USA) with bovine serum albumin as a standard.

[4] = parameters: method as in PMID 2339131; conditions: mice receiving over 0.1 μg every other day for 2 weeks; cited from earlier work
[5] = after i.p. administration; cited from earlier work
Text: Reduction of Aβ in the CNS is considered to be a primary therapeutic target for AD.

[6] = Tolerability in mice: body weight, behavior, residual [^3H]dextran (BBB integrity); assay type: in vivo; conditions: mouse, data not shown
TM-BBB4 cells [7] = experiment: Protein content of TM-BBB4 cells after the uptake (DC protein assay); assay type: cell-based, mouse
Protocol: as §1

N[C@@H](Cc1ccc(O)cc1)C(=O)O [L-tyrosine]
inhibition of elimination of [^125I]hAβ(1-40) from rat brain [1]: not significantly inhibited

C[C@H](/C=C/[C@H](C)C(C)(C)O)[C@H]1CC[C@H]2/C(=C/C=C3C[C@@H](O)C[C@H](O)C3)CCC[C@]12C [paricalcitol]
effect on [^125I]hAβ(1-40) elimination from mouse brain ([2]; data not shown): did not significantly enhance

C=C[C@@]1(C)CC(=O)[C@]2(O)[C@@]3(C)[C@@H](O)CCC(C)(C)[C@@H]3[C@H](O)[C@H](OC(C)=O)[C@@]2(C)O1 [forskolin]
effect on acid-resistant binding (internalization) of [^125I]hAβ(1-40) by TM-BBB4 cells (TM-BBB4 cells [3]; pre-treatment 10 μM for 24 h, 0.1% DMSO, [^125I]hAβ(1-40) 0.4 nM, 3 min, 37°C, n = 4): significantly increased | decrease of percentage of [^125I]hAβ(1-40) remaining in mouse brain versus vehicle-treated group ([2]; single i.p. 2.3 μg/mouse, 24 h, 60 min after microinjection, n = 4-5): 16.4% | decrease of percentage of [^125I]hAβ(1-40) remaining in mouse brain versus vehicle-treated group ([2]; single i.p. 23 μg/mouse, 24 h, 60 min after microinjection, n = 4-5): 16.4%

C=C1/C(=C\C=C2/CCC[C@]3(C)[C@@H]([C@H](C)CCCC(C)(C)O)CC[C@@H]23)C[C@@H](O)C[C@@H]1O [1,25(OH)2D3, 1α,25-dihydroxyvitamin D3]
hypercalcemia (calcium level) [4]: over 12 mg/dL | time at which plasma concentration reaches a maximum [5]: ≤ 2 h | time at which plasma concentration returns to baseline [5]: 24 h | effect on [^125I]hAβ(1-40) internalization by TM-BBB4 (TM-BBB4 cells [3]; data not shown): failed to provide consistent results | adverse effects during repeated treatment ([6]; 1 μg/day, from day 4): reduced body weight and abnormal behavior | body weight ([6]; single i.p. dose, up to 72 h after administration): No significant decrease | initial percentage of [^125I]hAβ(1-40) remaining in the mouse brain ([2]; 1 μg/mouse i.p., 24 h, not significantly different from vehicle (114%)): 118% | percentage of [^125I]hAβ(1-40) remaining in brain compared with vehicle-treatment group ([2]; mouse, 1 μg/mouse i.p., 24 h, 60 min after microinjection, time-profile experiment (Figure 1A)): significantly lower | increase of [^125I]hAβ(1-40) elimination rate constant versus vehicle-treated group ([2]; mouse, 1 μg/mouse i.p., 24 h after injection, p < 0.01): 1.3 fold and 1.29 fold | decrease of percentage of [^125I]hAβ(1-40) remaining in ipsilateral cerebrum versus vehicle-treated control ([2]; mouse, single i.p. 0.2 μg/mouse, 24 h, 60 min after microinjection): 12.9% | effect on percentage of [^125I]hAβ(1-40) remaining versus vehicle-treated control ([2]; mouse, 24 h after administration, 60 min after microinjection, n = 4-5 (Figure 2B)): significant reduction | effect on percentage of [^125I]hAβ(1-40) remaining versus vehicle-treated control ([2]; mouse, 48 h after administration, 60 min after microinjection, n = 4-5): no significant reduction | effect on percentage of [^125I]hAβ(1-40) remaining versus vehicle-treated control ([2]; mouse, 72 h after administration, 60 min after microinjection, n = 4-5): no significant reduction | decrease of percentage of [^125I]hAβ(1-40) remaining in ipsilateral cerebrum versus vehicle-treated control ([2]; mouse, single i.p. 5 μg/mouse, 24 h, 60 min after microinjection): 19.5% | apparent elimination rate constant (kel) of [^125I]hAβ(1-40) across the BBB ([2]; mouse, single i.p. dose 1 μg/mouse, 24 h before microinjection, slope of (100-BEI) time profile 5-60 min, mean ± SD, n = 3-5, vehicle group 1.85 × 10^-2): 0.0238 ± 0.0009 min⁻¹

N#CC(=C(/N)Sc1ccccc1N)/C(C#N)=C(/N)Sc1ccccc1N [U0126]
effect on forskolin-induced enhancement of [^125I]hAβ(1-40) acid-resistant binding (TM-BBB4 cells [3]; U0126 25 μM with forskolin 10 μM for 24 h, [^125I]hAβ(1-40) 0.4 nM, 3 min, n = 4): suppressed | reduction of acid-resistant binding of [^125I]hAβ(1-40) compared with the control (TM-BBB4 cells [3]; pre-treatment with U0126 alone, 25 μM, 24 h, 3 min uptake, n = 4): 11.2% | protein content of the cells after the uptake (TM-BBB4 cells [7]; 24 h treatment (U0126 25 μM, forskolin 10 μM), mean ± SEM, n = 4, control 89.8 ± 6.0): 72.0 ± 7.0 μg protein/well | reduction of protein content of the cells after the uptake (TM-BBB4 cells [7]; U0126 25 μM, 24 h, versus control 89.8 ± 6.0 μg protein/well): 19.8%
